Measurements taken from US4568666A, “Carboxylalkyl peptide derivatives” (G. D. Searle & Co., priority 1984, dated 1986).

Assays:
[1] = target: T1, Human Rheumatoid Synovial Collagenase (Homo sapiens, UniProt P03956); assay: Collagenase inhibition (procedure of Cawston and Barrett, acetyl 14C collagen); assay type: biochemical; settings: 37° C., 16 hours, native acetyl 14C collagen, Tris HCl-CaCl2 pH 7.6
T1 construct: from tissue
T1 sequence (P03956 100-469): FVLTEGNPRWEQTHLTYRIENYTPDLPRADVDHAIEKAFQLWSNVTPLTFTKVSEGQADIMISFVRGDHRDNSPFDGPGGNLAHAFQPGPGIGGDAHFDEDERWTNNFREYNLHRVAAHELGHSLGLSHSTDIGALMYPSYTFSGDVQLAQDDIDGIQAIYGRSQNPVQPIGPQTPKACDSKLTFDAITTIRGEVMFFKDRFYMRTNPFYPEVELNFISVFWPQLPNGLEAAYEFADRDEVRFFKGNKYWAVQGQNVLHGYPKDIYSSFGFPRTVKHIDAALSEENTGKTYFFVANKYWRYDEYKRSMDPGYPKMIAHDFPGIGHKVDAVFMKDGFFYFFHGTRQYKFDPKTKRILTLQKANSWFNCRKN
Method: This was determined following the procedure of Cawston and Barrett, Anal. Biochem., 99, 340-345 (1979) whereby the 1 mM of the inhibitor being tested or dilutions thereof are incubated at 37° C. for 16 hours with native collagen and collagenase (buffered with Tris HCl--CaCl2; pH 7.6). The collagen is acetyl ^14 C collagen. The samples are centrifuged to sediment undigested collagen and an aliquot of the radiactive supernatant removed for assay on a scintillation counter as a measure of hydrolysis. The collagenase activity in the presence of 1 mM inhibitor, or a dilution thereof, is compared to activity in a control devoid of inhibitor and the results reported as that inhibitor concentration effecting 50% inhibition of the collagenase.

[2] = test system: rat model of inflammatory arthritis; assay: Rat model of inflammatory arthritis induced by Type II collagen (Trentham et al.); assay type: in vivo; settings: prednisolone 0.625 mg/kg b.i.d.
Method: The therapeutic effectivness is assessed in the rat model of inflammatory arthritis described by Trentham et al. (1977). In this model, the arthritis, induced by an intradermal injection of Type II collagen, generally develops in both hind paws and the progression and severity of the lesion are monitored by physical measurements of the malleolar width and ankle extensibility.
The compound of Example II in the present specification was administered by intraperitoneal injections at 100 mg/kg twice daily for 21 days commencing seven days after the injection of the disease.
Drugs (Example 11 or prednisolone) and vehicle were administered to groups of 10 rats each. Physical measurements on the rat paws were made weekly for four weeks and consisted of (a) the distance between the medial and lateral malleolus (malleolar width) and (b) the ankle extension which was measured by applying a standard force to th rat paw and measuring the angle formed between the flexor surface of the foot and the tibia. Evidence of a therapeutic effect was denoted by a significant reduction in malleolar width and a significant increase in ankle extension. Both measurements were carried out in apparatus designed for the purpose. Area-under-the-curve data from these time course experiments was examinaed by non-parametic statistical analysis. The prednisolone standard was given at a dose of 0.625 mg/kg b.i.d. Prednisolone was chosen as a standard since steroids are known to be effective both clinically in Rheumatoid Arthritis and in animal models of arthritis.

[3] = arthritic rats' paws, Example 11 100 mg/kg i.p. twice daily for 21 days, area-under-the-curve data
[4] = mean of experiments 1-3, Example 11 100 mg/kg i.p. twice daily

Compound | IC50 [1] [µM] | further results
CNC(=O)[C@H](Cc1ccc(OC)cc1)NC(=O)[C@H](CC(C)C)N[C@H](CCCNC(=O)OCc1ccccc1)C(=O)O [Example 9, N-[4-N-(Benzyloxycarbonyl)amino-1-(R)-carboxybutyl]-L-leucyl-O-methyl-L-tyrosine N-Methylamide] | 9.5 | –
N-[3-N-(Benzyloxycarbonyl)amino-1-(R)-carboxypropyl]-L-leucyl-O-(2'-carboxyethyl-L-leucyl N-Methylamide)-L-tyrosine N-Methylamide [Example 35] | 2.4 | –
CC(C)C[C@H](N[C@H](CCNC(=O)OCc1ccccc1)C(=O)O)C(=O)NCCc1ccccc1 [Example 19, N-[3-N-(Benzyloxycarbonyl)amino-1-(R)-carboxypropyl]-L-leucine N-Phenethylamide] | 51 | –
CC(C)C[C@H](N[C@H](C)C(=O)O)C(=O)NCCc1ccccc1 [Example 6, N[1-(R)-Carboxyethyl]-L-Leucine N-Phenethylamide] | 42 | –
CNC(=O)[C@H](Cc1ccc(OC)cc1)NC(=O)[C@H](CC(C)C)N[C@H](CCN)C(=O)O [Example 13, N-[3-Amino-1-(R)-carboxypropyl]-L-leucyl-O-methyl-L-tryosine N-Methylamide] | 91 | –
CNC(=O)[C@H](Cc1ccc(OCc2ccccc2)cc1)NC(=O)[C@H](CC(C)C)N[C@H](C)C(=O)O [Example 5, N[1-(R)-Carboxyethyl]-L-leucyl-O-benzyl-L-tyrosine N-Methylamide] | 1.7 | –
CNC(=O)[C@H](Cc1ccc(O)cc1)NC(=O)[C@H](CC(C)C)N[C@H](CCNC(=O)OCc1ccccc1)C(=O)O [Example 25, N-[3-N-(Benzyloxycarbonyl)amino-1-(R)-carboxypropyl]-L-leucyl-L-tyrosine N -Methylamide] | 1.2 | –
CNC(=O)[C@H](Cc1ccc(OCc2ccccc2)cc1)NC(=O)[C@H](CC(C)C)N[C@H](CCNC(=O)OCc1ccccc1)C(=O)O [Example 32, N-[3-N-(Benzyloxycarbonyl)amino-1-(R)-carboxypropyl]-L-leucyl-O-benzyl-L-tyrosine N-Methylamide] | 0.91 | –
CCCCCOc1ccc(C[C@H](NC(=O)[C@H](CC(C)C)N[C@H](CCNC(=O)OCc2ccccc2)C(=O)O)C(=O)NC)cc1 [Example 29, N-[3-N-(Benzyloxycarbonyl)amino-1-(R)-carboxypropyl]-L-leucyl-O-pentyl-L-tyrosine N-Methylamide] | 0.54 | –
N-[3-(N'-Benzyl)carbamoyl-1-(R)-carboxypropyl]-L-leucyl-O-methyl-L-tyrosineN-Methylamide [Example 18] | 1.3 | –
CNC(=O)[C@H](Cc1ccc(OC)cc1)NC(=O)[C@H](CC(C)C)N[C@H](CCNC(=O)OCc1ccc([N+](=O)[O-])cc1)C(=O)O [Example 14, N-[3-N-(p-Nitrobenzyloxycarbonyl)amino-1-(R)-carboxypropyl]-L-leucyl-O-methyl-L-tyrosine N-Methylamide] | 1.2 | –
CNC(=O)[C@H](Cc1ccc(OC)cc1)NC(=O)[C@H](CC(C)C)N[C@H](CCNC(=O)c1ccc([N+](=O)[O-])cc1)C(=O)O [Example 16, N-[3-N-(P-Nitrobenzoyl)amino-1-(R)-carboxypropyl]-L-leucyl-O-methyl-L-tyrosine. N-Methylamide] | 4.9 | –
CNC(=O)[C@H](Cc1ccc(OC2CCCC2)cc1)NC(=O)[C@H](CC(C)C)N[C@H](CCNC(=O)OCc1ccccc1)C(=O)O [Example 33, N-[3-N-(Benzyloxycarbonyl)amino-1-(R)-carboxypropyl]-L-leucyl-O-cyclopentyl-L-tyrosine N-Methylamide] | 0.74 | –
COc1ccc(C[C@H](NC(=O)[C@H](CC(C)C)N[C@H](CCNC(=O)OCc2ccccc2)C(=O)O)C(=O)NCCc2ccccc2)cc1 [Example 36, N-[3-N-(Benzyloxycarbonyl)amino-1-(R)-carboxypropyl]-L-leucyl-O-methyl-L-tyrosine N-Phenethylamide] | 1 | –
CNC(=O)[C@H](Cc1ccc(OCCCCCC(C)C)cc1)NC(=O)[C@H](CC(C)C)N[C@H](CCNC(=O)OCc1ccccc1)C(=O)O [Example 31, N-[3-N-(Benzyloxycarbonyl)amino-1-(R)-carboxypropyl]-L-leucyl-O-6(methyl)heptyl-L-tyrosine N-methyl amide] | 2.5 | –
CCCOc1ccc(C[C@H](NC(=O)[C@H](CC(C)C)N[C@H](CCNC(=O)OCc2ccccc2)C(=O)O)C(=O)NC)cc1 [Example 26, N-(3-N-(Benzyloxycarbonyl)amino-1-(R)-carboxypropyl)-L-leucyl-O-propyl-L-tyrosine N-methyl amide] | 0.74 | –
CNC(=O)[C@H](Cc1ccc(OC)cc1)NC(=O)[C@H](CC(C)C)N[C@H](CCSC)C(=O)O [Example 7, N[1-(R)-Carboxy-3-methylthiopropyl]-L-leucyl-O-methyl-L-tyrosine N-methylamide] | 5.5 | –
CNC(=O)[C@H](Cc1ccc(OC)cc1)NC(=O)[C@H](CC(C)C)N[C@H](CCCCNC(=O)[C@@H]1CCCN1C(C)=O)C(=O)O [Example 22, N-[5-N-[N-Acetyl-L-prolyl]amino-1-(R)-carboxypentyl]-L-leucyl-O-methyl-L-tyrosine N-Methylamide] | 42 | –
CNC(=O)[C@H](Cc1ccc(O)cc1)NC(=O)[C@H](CC(C)C)N[C@H](CCNC(=O)c1ccccc1)C(=O)O [Example 15, N-[3-N-(Benzoyl)amino-1-(R)-carboxy-propyl]-L-leucyl-L-tyrosine N-Methylamide] | 3.1 | –
CNC(=O)[C@H](Cc1ccc(OC(C)C)cc1)NC(=O)[C@H](CC(C)C)N[C@H](CCNC(=O)OCc1ccccc1)C(=O)O [Example 27, N-[3-N-(Benzyloxycarboxyl)amino-1-(R)-carbonypropyl]-L-leucyl-O-isopropyl-L-tyrosine N-methylamide] | 2.1 | –
C[C@]12C=CC(=O)C=C1CC[C@@H]1[C@@H]2[C@@H](O)C[C@@]2(C)[C@H]1CC[C@]2(O)C(=O)CO [Prednisolone, prednisolone, reference compound] | – | Ankle extension, percentage change from control, experiment number 2 [2, 3]: 96%; Ankle extension, percentage change from control, experiment number 3 [2, 3]: 95%; Malleolar width, percentage change from control, experiment number 1 [2, 3]: 98%; Malleolar width, percentage change from control, experiment number 2 [2, 3]: 96%; Malleolar width, percentage change from control, experiment number 3 [2, 3]: 97%; Ankle extension, percentage change from control, mean [2, 4]: 97%; Malleolar width, percentage change from control, mean [2, 4]: 97%
CNC(=O)[C@H](Cc1ccc(OC(C)(C)C)cc1)NC(=O)[C@H](CC(C)C)N[C@H](CCNC(=O)OCc1ccccc1)C(=O)O [Example 28] | 3.6 | –
CCCCNC(=O)[C@H](C)NC(=O)[C@H](CCCC)N[C@H](C)C(=O)O [Example 24, N-(1-(R)-Carboxyethyl)-S-norleucyl-S-alanine. N-Butylamide] | 19 | –
CNC(=O)[C@H](Cc1ccc(OC)cc1)NC(=O)[C@H](CC(C)C)N[C@H](CCCCNC(=O)OCc1ccccc1)C(=O)O [Example 21, N-[5-N-(Benzyloxycarbonyl)amino-1-(R)-carboxypentyl]-L-leucyl-O-methyl-L-tyrosine N-Methylamide] | 11 | –
CNC(=O)[C@H](Cc1ccc(OCCC(C)C)cc1)NC(=O)[C@H](CC(C)C)N[C@H](CCNC(=O)OCc1ccccc1)C(=O)O [Example 30, N[3-N-(Benzyloxycarbonyl)amino-1-(R)-carboxypropyl]-L-leucyl-O-3(methyl)butyl-L-tyrosine N-methyl amide] | 1.1 | –
CCCCNC(=O)COc1ccc(C[C@H](NC(=O)[C@H](CC(C)C)N[C@H](CCNC(=O)OCc2ccccc2)C(=O)O)C(=O)NC)cc1 [Example 34, N-[3-N-(Benzyloxycarbonyl)amino-1-(R)-carboxypropyl]-L-leucyl-O-(2-aminobutyl-2-oxo)ethyl-L-tyrosine N-Methylamide] | 2.6 | –
